From US6171575A, “Method of radioisotopic assessment of the integrity and function of the nose-brain barrier” (priority 1998, dated 2001)
Entries after “also recorded” stand apart in the source; their conditions may differ. Read-outs that look alike come from different tables or passages of the source.

Columns and labels:
[1] = cited from earlier work
[2] = Radioisotopic penetration across the nose-brain barrier (NBB) after intranasal spray, gamma camera ROI
Description: (§1) A. The radiopharmaceutical was sprayed deep into the nose through the nostril as the examinee laid on the scintigraphic table with the head placed in vertical position. B. The resultant radioactivity residing on the olfactory mucosa. C. The region of interest (ROI) placed just beneath the nose-brain barrier on the (cathode Ray Tube) so as to record the penetrating radioactivity. D. Pharyngeal radioactivity escaped from the olfactory pit.
(§2) The mixture was sprayed into the depth of the nose. […] In order to protect the nasal mucosa, vinyl tubing was attached to the end of the nozzle of a sprayer. As the head of an examinee was positioned vertically, so as to allow the droplets to fall onto the olfactory mucosa, the examiner sprayed the mixture deep into one of the nostrils; and
(§3) (2) Assessing the radioisotopic penetration across the NBB The radioisotopic spray side of the head of an examinee was placed against the detector collimator of a gamma camera for 10 minutes. Radioisotopic penetration was defined as the amount of radioactivity recorded in the regions of interest (ROIs) placed over the intracranial space adjoing the cribrijon lamine. The change of the recorded radioactivity in this ROI was analyzed along with that in a remote control brain area.
(§4) Test were performed to determine the penetration potential of radio-pharmaceuticals of ^99m Tc-HMPAO and ^99m Tc-DTPA.

[3] = renogrammatic analysis; imaging and dynamic studies of cerebrospinal fluid flow; cited from earlier work
[4] = in vivo
Description: as §1, §2, §3, §4

[5] = agent that circulates in the blood; cited from earlier work

What does the source list for O=C([O-])CN(CCN(CC(=O)[O-])CC(=O)[O-])CCN(CC(=O)[O-])CC(=O)[O-].[99Tc+4] [^99m Tc-DTPA, 99mTc-diethylenetriaminepenta-acetic acid]?
water solubility [1]: water-soluble; radioisotopic penetration across the NBB (radioactivity in juxta-cribriform brain ROI) ([2]; healthy person, intranasal spray, 10 minutes gamma camera): the change was statistically insignificant; also recorded: increased but without any statistical significance; passage of the nose-brain barrier ([2]; overall conclusion, human beings, olfactory pathology and/or healthy control): shown to pass the nose-brain barrier; time after which radioactivity in the juxta-cribriform brain increased significantly ([2]; person with anosmia, left nostril): 5 min; radioisotopic penetration across the NBB (radioactivity in juxta-cribriform brain ROI) ([2]; person with anosmia, left nostril, 148 MBq per 0.2 ml puff (example preparation)): significant increase in radioactivity in the juxta-cribriform lamional brain; also recorded: increased significantly; extracellular spreading [3]: spreads extracellularly

What does the source list for C/C(=N\[O-])[C@@H](C)[N-]CC(C)(C)C[N-][C@H](C)/C(C)=N/O.[O]=[99Tc+3] (racemic) [^99m Tc-HMPAO]?
passage of the nose-brain barrier [4]: shown not to pass the nose-brain barrier; passage through the blood-brain barrier [5]: passes through the blood-brain barrier
